The values below come from US4978783A, “2,6-dimethoxyhydroquinone-3-mercaptopropionic acid, 2,6-dimethoxyhydroquinone-3-mercaptoacetic acid, and antitumor use thereof” (National Science Council, priority 1990, dated 1990).

The subject of data set [1] is Colo-205 (colon adenocarcinoma) cells. Description: Cytotoxicity assay against Colo-205 cells by the MTT method. In kind it is cell-based, human. The conditions noted are these: for CI: 5760 min; for Cytotoxicity index (CI): Table 1, 4 days; for CI value compared with DMQ, in words: versus DMQ. On the procedure: Four different human cancer cell lines were used in this assay.
(§1) Cell suspensions were trypsinized and disaggregated. 3×10^3 cells were inoculated into each well in 0.18 ml of medium, to which 0.02 ml of drug was added. After 4 days of culture, 0.1 mg of 3-(4,5-dimethylthiazol-2-yl)-2,5-diphenyltetrazolium bromide (MTT) was added to each well and the plate incubated for 4 hours. The medium was then removed, 0.2 ml DMSO was added to each well and the plate agitated for 10 min. The optical density of each well was measured at a 545 nm test wavelength and a 690 nm reference wavelength using a Titertek Multiskan plate reader. Absorbance levers from drug tested cells were corrected against untreated control values.
(§2) *Cytotoxicity index (CI) = 100% × [1(O.D. of treated cells / O.D. o
A general note: Tetrazolium dyes change colour on reduction, which living cells bring about.

Data set [2] deals with KB (oral epidermoid carcinoma) cells. Description: Cytotoxicity against KB cells by the MTT method. It counts as cell-based, human. The conditions noted are these: 5760 min.
Source text: (§3) A convenient cytotoxicity assay adopted in this example for the evaluation of antitumor activity is the MTT method disclosed in an article by Twentyman and Luscombe, entitled "A study of some variables in a tetrazolium dye (MTT) based assay for cell growth and chemosensitivity" Br. J. Cancer. 56, 279-285 (1987).
(§4) Four different human cancer cell lines were used in this assay. These were KB (oral epidermoid carcinoma); Colo-205 (colon adenocarcinoma); HeLa (cervical carcinoma); and HEP-2 (larynx epidermoid carcinoma).
as §1, with “Cells were taken from exponential phase cultures and were allowed to grow in a plate containing 96 wells using RPMI-1640 medium supplemented with 5% fetal bovine serum, 1 mM glutamine and antibiotics (penicillin and streptomycin) at 37° C. in a CO2 incubator. Cell” for “Cell”
as §2

Data set [3] has as its system HeLa (cervical carcinoma) cells. Description: Cytotoxicity against HeLa cells by the MTT method. It counts as cell-based, human. The conditions noted are these: 5760 min.
Source text: as §3, §4
as §1, with “Cells were taken from exponential phase cultures and were allowed to grow in a plate containing 96 wells using RPMI-1640 medium supplemented with 5% fetal bovine serum, 1 mM glutamine and antibiotics (penicillin and streptomycin) at 37° C. in a CO2 incubator. Cell” for “Cell”
as §2

The test system of data set [4] is HEP-2 (larynx epidermoid carcinoma) cells. Description: Cytotoxicity against HEP-2 cells by the MTT method. In kind it is cell-based, human. The conditions noted are these: 5760 min.
Source text: as §3, §4
as §1, with “Cells were taken from exponential phase cultures and were allowed to grow in a plate containing 96 wells using RPMI-1640 medium supplemented with 5% fetal bovine serum, 1 mM glutamine and antibiotics (penicillin and streptomycin) at 37° C. in a CO2 incubator. Cell” for “Cell”
as §2

The next data set concerns human tumor cell lines. Kind of data set: Cytotoxicity against four/several human tumor cell lines, (MTT method). It counts as cell-based. The conditions noted are these: for cytotoxicity at 100 µg/mL: 96 h, each alone, DMQ-MP 1 μg/ml or D-isoascorbic acid 100 μg/ml, read-out: cytotoxicity index (CI) value, summary; for cytotoxicity compared with DMQ, in words: drug without activator, versus DMQ; for cytotoxicity in combination with L-ascorbic acid or D-isoascorbic acid, in words: several human cancer cell lines, in vitro.
Source text: as §3, §4
as §1, with “Cells were taken from exponential phase cultures and were allowed to grow in a plate containing 96 wells using RPMI-1640 medium supplemented with 5% fetal bovine serum, 1 mM glutamine and antibiotics (penicillin and streptomycin) at 37° C. in a CO2 incubator. Cell” for “Cell”

A further data set is described as follows: Solubility in H2O. It counts as physicochemical. The conditions noted are these: for solubility: water; for solubility / solubility relative to DMQ (times higher): H2O, 27° C.; for solubility relative to DMQ (times higher): versus DMQ; for water-solubility, in words: compared with DMQ.
The conditions of data set [5]: background statement; cited from earlier work.
A further data set concerns Ehrlich ascites. The conditions noted are these: DMQ in combination with L-ascorbic acid; cited from earlier work.
For another data set, the system named is normal cells. The conditions noted are these: background statement; cited from earlier work.
The conditions of data set [6]: background statement; cited from earlier work. This is another data set of the same source.
Data set [7] is described as follows: Hydrophobicity (statement). In kind it is physicochemical. The conditions noted are these: to gain passage into the cell via the cell membrane.
The conditions of data set [8]: cited from earlier work.
Setting [9] is: Table 2, D-isoascorbic acid 100 μg/ml alone.
Where [10] appears, read: Table 3, DMQ-MA 1 μg/ml + L-ascorbate 100 μg/ml.
[11] abbreviates: Table 3, DMQ-MA 1 μg/ml, no activator.
[12] abbreviates: Table 2, DMQ-MP 1 μg/ml + D-isoascorbic acid 100 μg/ml.
[13] abbreviates: Table 2, DMQ-MP 1 μg/ml, no activator.
[14] abbreviates: Table 3, L-ascorbate 100 μg/ml alone.

≈ marks a conversion by molar mass, not a printed value. Entries after “also recorded” stand apart in the source; their conditions may differ.

For `O=C1O[C@H]([C@H](O)CO)C(O)=C1O` [D-isoascorbic acid, reference compound], the CI in [1] (setting [9]) is 24%; in data set [2] (setting [9]) it was 11%; in data set [3] (setting [9]) it was 5%; in data set [4] (setting [9]), 13%. In addition, the cytotoxicity at 100 µg/mL with human tumor cell lines (four human tumor cell lines) was under 25%.
For orientation: solubility means how much of the substance goes into solution per volume. `COC1=CC(=O)C=C(OC)C1=O` [DMQ, 2,6-dimethoxy-p-benzoquinone] returned a solubility in “Solubility in H2O” of 74 µg/mL (≈ 0.44 mM). Moreover, the “Cytotoxicity index (CI)” value was 76.6% in data set [1] (drug 1.0 μg/ml, L-ascorbate 100 μg/ml) and 87.9% in data set [1] (drug 10 μg/ml, no L-ascorbate). In [5], the “solubility in water, in words” value is “poor solubility in water”. Further, the “effect in Ehrlich ascites-bearing mice, in words” value in the data set on Ehrlich ascites is “effective”. Also, in the data set with normal cells, the “cytotoxicity to normal cells, in words” value is “certain degree of cytotoxicity; also recorded: destruction of normal cells”. Moreover, the “precipitation from the blood, in words” value in [6] was “precipitate from the blood easily”.
For the compound `COc1cc(O)c(SCC(=O)O)c(OC)c1O` [DMQ-MA, 2,6-dimethoxyhydroquinone-3-mercaptoacetic acid], in the data set “Solubility in H2O”, the “solubility relative to DMQ (times higher)” value is listed as “about 70 times”. Also, the “water-solubility, in words” value in “Solubility in H2O” is given as “a lot more water-soluble than DMQ; also recorded: significantly improved water-solubility in comparison with DMQ”. Further, the solubility in the data set “Solubility in H2O” amounted to 5000 µg/mL (≈ 19.2 mM). In addition, the “Cytotoxicity index (CI)” value in data set [1] (drug 10 μg/ml, L-ascorbate 1.0 μg/ml (so in the source)) was found to be 22.1%. Further, the CI is listed as 86% in data set [1] (setting [10]); 0% in data set [1] (setting [11]); 89% in data set [2] (setting [10]); 0% in [2] (setting [11]); 79% in data set [3] (setting [10]); 3% in data set [3] (setting [11]). Moreover, the values for the CI in data set [4] (setting [10]) and in [4] (setting [11]) were 86% and 2%, respectively. Also, in data set [1] (drug 10 μg/ml), the “CI value compared with DMQ, in words” value is recorded as “significantly lower than DMQ”. Also, the “cytotoxicity compared with DMQ, in words” value with human tumor cell lines is on record as “less cytotoxic”. For the same compound, the “cytotoxicity in combination with L-ascorbic acid or D-isoascorbic acid, in words” value in the data set with human tumor cell lines was “greatly augmented; also recorded: act synergistically”. In addition, the “hydrophobicity, in words” value in data set [7] was “a certain degree of hydrophobicity”.
Turning to `COc1cc(O)c(SCCC(=O)O)c(OC)c1O` [DMQ-MP, 2,6-dimethoxyhydroquinone-3-mercaptopropionic acid], the “solubility relative to DMQ (times higher)” value in “Solubility in H2O” was “about 70 times”. In addition, the “water-solubility, in words” value in the data set “Solubility in H2O” is “a lot more water-soluble than DMQ; also recorded: significantly improved water-solubility in comparison with DMQ”. Further, in “Solubility in H2O”, the solubility was 5330 µg/mL (≈ 19.4 mM). The “Cytotoxicity index (CI)” value in [1] (drug 10 μg/ml, no L-ascorbate) is reported as 43.5%. Moreover, the CI in [1] (setting [12]) was determined as 78%; in data set [1] (setting [13]) it was 17%; in data set [2] (setting [12]), 79%; in [2] (setting [13]) it was 10%; in data set [3] (setting [12]) it was 88%; in data set [3] (setting [13]), 11%. In addition, the CI is reported as 77% in data set [4] (setting [12]) and 13% in [4] (setting [13]). Also, the “CI value compared with DMQ, in words” value in data set [1] (drug 10 μg/ml) is given as “significantly lower than DMQ”. In addition, the cytotoxicity at 100 µg/mL in the data set on human tumor cell lines (four human tumor cell lines) was under 25%. For the same compound, the “CI values, summary” value in the data set with human tumor cell lines (DMQ-MP 1 μg/ml in combination with D-isoascorbic acid 100 μg/ml, four human tumor cell lines, 5760 min) is listed as 77-88%. Also, the “cytotoxicity compared with DMQ, in words” value in the data set on human tumor cell lines is reported as “less cytotoxic”. Also, in the data set on human tumor cell lines, the “cytotoxicity in combination with L-ascorbic acid or D-isoascorbic acid, in words” value is recorded as “greatly augmented; also recorded: act synergistically”. Also, the “hydrophobicity, in words” value in data set [7] was “a certain degree of hydrophobicity”.
As for `O=C1O[C@H]([C@@H](O)CO)C(O)=C1O` [L-ascorbate, reference compound], the CI was found to be 5% in [1] (setting [14]), 0.4% in data set [2] (setting [14]), 2% in [3] (setting [14]) and 9% in data set [4] (setting [14]). Further, in data set [8], the “concentration of L-ascorbate in the human body” value was at most 1000 µM.
